Test results from US12527322B2, “Fungicidal compositions” (SYNGENTA CROP PROTECTION AG, priority 2020, dated 2026).
Where “and” joins values, the source holds several entries; their conditions need not be identical. Identical values can stand only once. Like-named read-outs stand apart in the source and are kept apart here. *1 amine or outer side, *2 acyl side, *3 side chain or, on linkers, in order; H or OH if unused. Where a SMILES comes first, the peptide text is derived from it. [ ]: non-standard residue; d: D form. ξ: configuration not given here. ξNMeVal(3-OH) = CNC(C(=O)O)C(C)(C)O; NMeF = CN[CH](Cc1ccccc1)C(=O)O; X1 = CCC(C)C(O[*:1])C(=O)[*:2]; NMeV = CN[CH](C(=O)O)C(C)C

Columns and labels:
Botrytis cinerea = test: Liquid culture test in well plates: Botrytis cinerea (Gray mould), Example 1-1; type: cell-based
Method: (§1) Mycelia fragments or conidia suspensions of a fungus, prepared either freshly from liquid cultures of the fungus or from cryogenic storage, are directly mixed into nutrient broth. DMSO solutions of the test compound (max. 10 mg/mL) is diluted with 0.025% Tween20 by factor 50 and 10 μL of this solution is pipetted into a microtiter plate (96-well format). […] The test plates are incubated in the dark at 24° C. and 96% relative humidity (rh). The inhibition of fungal growth is determined photometrically and visually after 3-7 days, depending on the pathosystem, and percent antifungal activity relative to the untreated check is calculated.
Conidia of the fungus from cryogenic storage were directly mixed into nutrient broth (PDB potato dextrose broth). After placing a DMSO solution of the test compositions into a microtiter plate (96-well format), the nutrient broth containing the fungal spores was added.

Alternaria solani = test: Liquid culture test in well plates: Alternaria solani (early blight of tomato/potato), Example 1-2; type: cell-based; settings: for inhibition at 0.0012 ppm: component (B) alone at 0.0012 ppm
Method: as §1, with “The inhibition of fungal growth is determined photometrically and visually after 3-7 days, depending on the pathosystem, and percent antifungal activity relative to the untreated check is calculated.” left out
Conidia of the fungus from cryogenic storage were directly mixed into nutrient broth (PDB potato dextrose broth). After placing a DMSO solution of the test compositions into a microtiter plate (96-well format) the nutrient broth containing the fungal spores was added.

[1] = component (B) alone at 0.0003 ppm, 72 hours
[2] = Botrytis cinerea, component (B) alone at 0.0006 ppm, 72 hours, read-out: (B) inhibition
[3] = Botrytis cinerea, component (B) alone at 0.0012 ppm, 72 hours, read-out: (B) inhibition
[4] = Botrytis cinerea, component (B) alone at 0.0025 ppm, 72 hours
[5] = Botrytis cinerea, component (B) alone at 0.0050 ppm, 72 hours
[6] = Alternaria solani, component (B) alone at 0.0025 ppm, 48 hours, read-out: (B) inhibition
[7] = Botrytis cinerea, component (B) alone at 0.0003 ppm, 72 hours
[8] = component (B) alone at 0.0006 ppm, 72 hours
[9] = component (B) alone at 0.0050 ppm, 72 hours
[10] = component (B) alone at 0.0050 ppm, 48 hours
[11] = component (B) alone at 0.0012 ppm, 72 hours

## CCC(C)C1NC(=O)C2CCCN2C(=O)C(Cc2ccccc2)N(C)C(=O)C(Cc2ccccc2)NC(=O)C(C(C)C)N(C)C(=O)C(C(C)CC)OC(=O)C(C(C)(C)O)N(C)C(=O)C(CC(C)C)NC(=O)C(C(C)C)N(C)C1=O (stereo not shown) [Aureobasidin A] (cyclo([ξNMeVal(3-OH)][X1][NMeV]F[NMeF]PI[NMeV]L); configuration not given here)
Botrytis cinerea; Aureobasidin A (A) alone at 0.0003 ppm, 72 hours
  (A) inhibition: 9% and 1%
Botrytis cinerea; Aureobasidin A (A) alone at 0.0006 ppm, 72 hours
  (A) inhibition: 6%
Botrytis cinerea; Aureobasidin A (A) alone at 0.0200 ppm, 72 hours
  (A) inhibition: 32%
Botrytis cinerea; Botrytis cinerea, 72 h, read-out: (A) inhibition, Aureobasidin A (A) alone at 0.0002 ppm
  inhibition at 0.0002 ppm: 5%
Botrytis cinerea; Botrytis cinerea, 72 h, read-out: (A) inhibition, Aureobasidin A (A) alone at 0.0006 ppm
  inhibition at 0.0006 ppm: 9%
Botrytis cinerea; Botrytis cinerea, 72 h, read-out: (A) inhibition, Aureobasidin A (A) alone at 0.0012 ppm
  inhibition at 0.0012 ppm: 9%
Alternaria solani; Alternaria solani, 48 h, read-out: (A) inhibition, Aureobasidin A (A) alone at 0.0001 ppm
  inhibition at 0.0001 ppm: 9%
Alternaria solani; Alternaria solani, 48 h, read-out: (A) inhibition, Aureobasidin A (A) alone at 0.0025 ppm
  inhibition at 0.0025 ppm: 20%
Alternaria solani; Alternaria solani, 48 h, read-out: (A) inhibition, Aureobasidin A (A) alone at 0.0050 ppm
  inhibition at 0.005 ppm: 5%
Alternaria solani; Alternaria solani, 48 h, read-out: (A) inhibition, Aureobasidin A (A) alone at 0.0100 ppm
  inhibition at 0.01 ppm: 17%
Alternaria solani; Alternaria solani, 48 h, read-out: (A) inhibition, Aureobasidin A (A) alone at 0.0400 ppm
  inhibition at 0.04 ppm: 36%
Alternaria solani; Aureobasidin A (A) alone at 0.0050 ppm, 48 hours
  (A) inhibition: 3%
Alternaria solani; Aureobasidin A (A) alone at 0.0100 ppm, 48 hours
  (A) inhibition: 14%

## CC1(C)N=C(c2cnc3ccccc3c2)c2ccccc2C1(F)F [B-1, quinofumelin]
Botrytis cinerea; [1]
  (B) inhibition: 27%
Botrytis cinerea; component (B) alone at 0.0005 ppm, 72 hours
  (B) inhibition: 37%

## Cc1ccc2c(C3=NC(C)(C)C(F)(F)c4c(F)cccc43)cnn2c1C [B-5, 1-(6,7-dimethylpyrazolo[1,5-a]pyridin-3-yl)-4,4,5-trifluoro-3,3-dimethyl-isoquinoline]
Botrytis cinerea; [2]
  inhibition at 0.0006 ppm: 17%
Botrytis cinerea; [3]
  inhibition at 0.0012 ppm: 40%
Botrytis cinerea; [4]
  inhibition at 0.0025 ppm: 57%
Botrytis cinerea; [5]
  inhibition at 0.005 ppm: 75%
Alternaria solani; Alternaria solani, 48 hours
  inhibition at 0.0012 ppm: 30%
Alternaria solani; [6]
  inhibition at 0.0025 ppm: 56%

## Cc1ccc2c(C3=NC(C)(C)C(F)(F)c4cc(F)ccc43)cnn2c1C [B-6, 1-(6,7-dimethylpyrazolo[1,5-a]pyridin-3-yl)-4,4,6-trifluoro-3,3-dimethyl-isoquinoline]
Botrytis cinerea; [2]
  inhibition at 0.0006 ppm: 25%
Botrytis cinerea; [3]
  inhibition at 0.0012 ppm: 34%
Botrytis cinerea; [4]
  inhibition at 0.0025 ppm: 68%
Botrytis cinerea; [5]
  inhibition at 0.005 ppm: 84%
Alternaria solani; Alternaria solani, component (B) alone at 0.0006 ppm, 48 hours
  inhibition at 0.0006 ppm: 22%
Alternaria solani; Alternaria solani, 48 hours
  inhibition at 0.0012 ppm: 39%
Alternaria solani; [6]
  inhibition at 0.0025 ppm: 59%

## Cc1cccc2c(C3=NC(C)(C)C(F)(F)c4ccccc43)cnn12 [B-7, 4,4-difluoro-3,3-dimethyl-1-(7-methylpyrazolo[1,5-a]pyridin-3-yl)isoquinoline]
Botrytis cinerea; [2]
  inhibition at 0.0006 ppm: 18%
Botrytis cinerea; [3]
  inhibition at 0.0012 ppm: 40%
Alternaria solani; Alternaria solani, component (B) alone at 0.0100 ppm, 48 hours, read-out: (B) inhibition
  inhibition at 0.01 ppm: 63%

## Cc1ccc2c(ncn2C2=NC(C)(C)C(F)(F)c3c(F)cccc32)c1C [B-8, 1-(4,5-dimethylbenzimidazol-1-yl)-4,4,5-trifluoro-3,3-dimethyl-isoquinoline]
Botrytis cinerea; [7]
  inhibition at 0.0003 ppm: 22%
Botrytis cinerea; [2]
  inhibition at 0.0006 ppm: 40%
Botrytis cinerea; [3]
  inhibition at 0.0012 ppm: 50%
Alternaria solani; Alternaria solani, 48 hours
  inhibition at 0.0012 ppm: 38%

## Cc1ccc2c(ncn2C2=NC(C)(C)C(F)(F)c3ccccc32)c1C [B-9, 1-(4,5-dimethylbenzimidazol-1-yl)-4,4-difluoro-3,3-dimethyl-isoquinoline]
Botrytis cinerea; [7]
  inhibition at 0.0003 ppm: 9%
Botrytis cinerea; [2]
  inhibition at 0.0006 ppm: 28%
Botrytis cinerea; [3]
  inhibition at 0.0012 ppm: 45%
Alternaria solani; Alternaria solani, 48 hours
  inhibition at 0.0012 ppm: 24%

## Cc1cccc2c1ncn2C1=NC(C)(C)C(F)(F)c2cc(Cl)ccc21 [B-10, 6-chloro-4,4-difluoro-3,3-dimethyl-1-(4-methylbenzimidazol-1-yl)isoquinoline]
Botrytis cinerea; [2]
  inhibition at 0.0006 ppm: 21%
Botrytis cinerea; [3]
  inhibition at 0.0012 ppm: 39%
Botrytis cinerea; [4]
  inhibition at 0.0025 ppm: 49%

## N-[(1R)-1-benzyl-1,3-dimethyl-butyl]-8-fluoro-quinoline-3-carboxamide/N-[(1S)-1-benzyl-1,3-dimethyl-butyl]-8-fluoro-quinoline-3-carboxamide [B-2]
Botrytis cinerea; [1]
  (B) inhibition: 2%
Botrytis cinerea; [8]
  (B) inhibition: 35%
Botrytis cinerea; [9]
  (B) inhibition: 70%
Alternaria solani; component (B) alone at 0.0025 ppm, 48 hours
  (B) inhibition: 0%
Alternaria solani; [10]
  (B) inhibition: 10%
Alternaria solani; component (B) alone at 0.0100 ppm, 48 hours
  (B) inhibition: 52%

## N-[(1R)-1-benzyl-3,3,3-trifluoro-1-methyl-propyl]-8-fluoro-quinoline-3-carboxamide/N-[(1S)-1-benzyl-3,3,3-trifluoro-1-methyl-propyl]-8-fluoro-quinoline-3-carboxamide [B-3]
Botrytis cinerea; [8]
  (B) inhibition: 10%
Botrytis cinerea; [11]
  (B) inhibition: 32%
Botrytis cinerea; [9]
  (B) inhibition: 52%

## N-[(1R)-1-benzyl-3-chloro-1-methyl-but-3-enyl]-8-fluoro-quinoline-3-carboxamide/N-[(1S)-1-benzyl-3-chloro-1-methyl-but-3-enyl]-8-fluoro-quinoline-3-carboxamide [B-4]
Botrytis cinerea; [8]
  (B) inhibition: 33%
Botrytis cinerea; [11]
  (B) inhibition: 46%
Botrytis cinerea; component (B) alone at 0.0025 ppm, 72 hours
  (B) inhibition: 60%
Alternaria solani; [10]
  (B) inhibition: 32%
